From ChEMBL document CHEMBL5303764, “Data for DCP probe BI-3812” (2023)
Calls of active or inactive are those of the source. No cut-off for these calls is given here.

Legend:
[1] = target: T1, Muscarinic acetylcholine receptor M3 (Homo sapiens, UniProt P20309); assay: GPCRScan assay: inhibition of M3; parameters: radioligand conc. used [nm] 0.3 – 1.0, parental cells stable CHO
Target sequence in this assay (P20309 whole entry): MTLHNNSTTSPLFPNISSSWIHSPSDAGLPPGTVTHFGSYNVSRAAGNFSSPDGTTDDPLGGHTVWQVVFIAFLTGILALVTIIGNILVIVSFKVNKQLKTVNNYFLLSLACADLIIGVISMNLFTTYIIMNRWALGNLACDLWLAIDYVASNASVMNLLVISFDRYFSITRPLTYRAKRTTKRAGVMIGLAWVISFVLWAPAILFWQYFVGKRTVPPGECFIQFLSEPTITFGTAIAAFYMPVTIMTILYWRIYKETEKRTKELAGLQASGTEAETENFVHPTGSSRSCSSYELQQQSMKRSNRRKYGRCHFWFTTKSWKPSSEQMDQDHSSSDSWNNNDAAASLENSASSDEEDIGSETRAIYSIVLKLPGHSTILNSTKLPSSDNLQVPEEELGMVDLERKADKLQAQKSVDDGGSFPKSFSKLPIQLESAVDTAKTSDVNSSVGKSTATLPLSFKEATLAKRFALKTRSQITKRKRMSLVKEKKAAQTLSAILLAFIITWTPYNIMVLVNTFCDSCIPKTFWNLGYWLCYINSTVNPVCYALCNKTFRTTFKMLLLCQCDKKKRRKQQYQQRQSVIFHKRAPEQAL

[2] = target: B-cell lymphoma 6 protein (Homo sapiens, UniProt P41182); assay: BCL6::NCOR LUMIER in cells
[3] = target: B-cell CLL/lymphoma 6 member B protein (Homo sapiens, UniProt Q8N143); assay: SPR (BCL6B), Ontario institute for cancer research
[4] = target: Zinc finger and BTB domain-containing protein 32 (Homo sapiens, UniProt Q9Y2Y4); assay: SPR (ZBTB32), Ontario institute for cancer research
[5] = target: 5-hydroxytryptamine receptor 1B (Homo sapiens) (UniProt P28222); assay: 5HT1B(H) Eurofins SafetyScreen44 (BI); settings: filed as antagonist, Compound concentration 10.0 uM
[6] = target: Prostaglandin G/H synthase 1 (Homo sapiens) (UniProt P23219); assay: COX-1 Eurofins SafetyScreen44 (BI); settings: Compound concentration 10.0 uM
[7] = target: 5-hydroxytryptamine receptor 1A (Homo sapiens) (UniProt P08908); assay: 5HT1A/H Eurofins SafetyScreen44 (BI); settings: Compound concentration 10.0 uM
Sequence of 5-hydroxytryptamine receptor 1A (Homo sapiens) (P08908 whole entry): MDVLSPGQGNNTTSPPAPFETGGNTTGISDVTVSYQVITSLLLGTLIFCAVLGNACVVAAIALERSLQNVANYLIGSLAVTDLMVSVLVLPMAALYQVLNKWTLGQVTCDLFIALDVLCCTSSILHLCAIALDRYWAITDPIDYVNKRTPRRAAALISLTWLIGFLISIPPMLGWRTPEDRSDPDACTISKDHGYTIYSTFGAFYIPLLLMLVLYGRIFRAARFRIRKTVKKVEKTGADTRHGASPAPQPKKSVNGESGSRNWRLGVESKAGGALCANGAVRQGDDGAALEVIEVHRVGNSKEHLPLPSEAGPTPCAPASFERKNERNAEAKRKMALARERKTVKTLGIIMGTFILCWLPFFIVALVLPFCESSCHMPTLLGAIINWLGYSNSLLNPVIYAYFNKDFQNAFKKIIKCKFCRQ

[8] = target: Angiotensin-converting enzyme (Homo sapiens) (UniProt P12821); assay: ACE(HU_AMTCH400) Eurofins SafetyScreen44 (BI); settings: Compound concentration 10.0 uM
[9] = target: L-type Ca2+ channel (dihydropyridine site), Cav1.2 alpha-1C (Rattus norvegicus, UniProt P22002); assay: CA+/DHPSI/R Eurofins SafetyScreen44 (BI); settings: rat brain, probe [3H](+)PN200-110, compound concentration 10 uM, read-out: % Ctrl
Sequence of L-type Ca2+ channel (dihydropyridine site), Cav1.2 alpha-1C (P22002 whole entry): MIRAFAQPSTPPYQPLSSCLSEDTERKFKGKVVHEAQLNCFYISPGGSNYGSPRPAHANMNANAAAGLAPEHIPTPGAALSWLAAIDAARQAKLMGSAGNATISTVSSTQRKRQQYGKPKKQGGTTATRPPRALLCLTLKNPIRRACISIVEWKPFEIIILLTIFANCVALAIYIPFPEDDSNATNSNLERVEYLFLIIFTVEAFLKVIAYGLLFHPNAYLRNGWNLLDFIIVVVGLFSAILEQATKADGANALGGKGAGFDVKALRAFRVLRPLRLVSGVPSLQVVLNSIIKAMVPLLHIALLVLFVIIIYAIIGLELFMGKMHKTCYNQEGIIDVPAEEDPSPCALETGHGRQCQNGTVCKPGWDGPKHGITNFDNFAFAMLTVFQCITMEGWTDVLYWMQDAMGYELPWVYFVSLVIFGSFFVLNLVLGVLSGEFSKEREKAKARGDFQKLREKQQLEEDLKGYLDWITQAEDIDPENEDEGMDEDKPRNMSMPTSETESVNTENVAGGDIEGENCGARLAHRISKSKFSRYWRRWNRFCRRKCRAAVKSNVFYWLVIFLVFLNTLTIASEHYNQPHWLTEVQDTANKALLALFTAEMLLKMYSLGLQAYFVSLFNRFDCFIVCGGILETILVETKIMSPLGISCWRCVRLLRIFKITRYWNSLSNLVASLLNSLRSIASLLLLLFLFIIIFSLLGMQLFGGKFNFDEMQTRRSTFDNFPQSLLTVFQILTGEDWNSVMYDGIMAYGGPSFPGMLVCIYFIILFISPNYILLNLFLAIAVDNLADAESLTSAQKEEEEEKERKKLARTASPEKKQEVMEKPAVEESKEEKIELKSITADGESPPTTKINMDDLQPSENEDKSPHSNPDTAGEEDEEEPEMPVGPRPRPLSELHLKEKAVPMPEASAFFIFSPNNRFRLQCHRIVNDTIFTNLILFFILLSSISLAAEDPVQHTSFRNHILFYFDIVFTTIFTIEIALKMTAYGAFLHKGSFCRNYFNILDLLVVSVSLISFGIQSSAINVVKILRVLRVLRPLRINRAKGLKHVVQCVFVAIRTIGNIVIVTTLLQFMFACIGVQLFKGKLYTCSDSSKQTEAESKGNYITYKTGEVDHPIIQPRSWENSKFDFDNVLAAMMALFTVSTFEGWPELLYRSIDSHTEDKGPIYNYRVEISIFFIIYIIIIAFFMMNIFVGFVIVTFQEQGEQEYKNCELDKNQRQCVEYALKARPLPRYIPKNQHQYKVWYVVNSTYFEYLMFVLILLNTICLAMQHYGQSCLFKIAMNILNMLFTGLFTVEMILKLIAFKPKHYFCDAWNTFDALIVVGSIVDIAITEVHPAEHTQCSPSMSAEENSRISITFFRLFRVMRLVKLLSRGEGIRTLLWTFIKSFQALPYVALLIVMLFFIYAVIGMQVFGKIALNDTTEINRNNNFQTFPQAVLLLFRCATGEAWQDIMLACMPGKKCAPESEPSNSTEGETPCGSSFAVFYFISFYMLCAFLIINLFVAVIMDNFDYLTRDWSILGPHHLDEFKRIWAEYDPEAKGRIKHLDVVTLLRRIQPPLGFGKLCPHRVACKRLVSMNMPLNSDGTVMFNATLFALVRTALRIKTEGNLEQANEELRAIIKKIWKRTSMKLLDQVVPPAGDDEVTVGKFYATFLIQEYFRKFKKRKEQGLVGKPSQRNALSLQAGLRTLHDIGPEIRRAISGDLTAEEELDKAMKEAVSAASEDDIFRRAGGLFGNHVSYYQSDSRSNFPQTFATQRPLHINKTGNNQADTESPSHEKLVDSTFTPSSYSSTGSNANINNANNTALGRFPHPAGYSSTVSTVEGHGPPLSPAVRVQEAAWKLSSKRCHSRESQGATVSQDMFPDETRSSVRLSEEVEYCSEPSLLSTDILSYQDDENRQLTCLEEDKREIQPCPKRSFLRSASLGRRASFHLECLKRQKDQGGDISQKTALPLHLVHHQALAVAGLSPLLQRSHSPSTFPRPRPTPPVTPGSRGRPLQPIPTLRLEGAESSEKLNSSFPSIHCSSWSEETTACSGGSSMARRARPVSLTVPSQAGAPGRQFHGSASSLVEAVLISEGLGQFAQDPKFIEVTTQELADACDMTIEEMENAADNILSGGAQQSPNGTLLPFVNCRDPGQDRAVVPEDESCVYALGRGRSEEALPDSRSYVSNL

[10] = target: Cannabinoid receptor 2 (Homo sapiens) (UniProt P34972); assay: CB2/PERIPH/H Eurofins SafetyScreen44 (BI); settings: Compound concentration 10.0 uM
[11] = target: Cholecystokinin receptor type A (Homo sapiens) (UniProt P32238); assay: CCKA/H Eurofins SafetyScreen44 (BI); settings: Compound concentration 10.0 uM
[12] = target: D(2) dopamine receptor (Homo sapiens) (UniProt P14416); assay: D2SH_AGON Eurofins SafetyScreen44 (BI); settings: filed as agonist, Compound concentration 10.0 uM
[13] = target: Delta-type opioid receptor (Homo sapiens) (UniProt P41143); assay: DELTA2/H Eurofins SafetyScreen44 (BI); settings: Compound concentration 10.0 uM
[14] = target: Glucocorticoid receptor (Homo sapiens) (UniProt P04150); assay: GCORTICOID/H Eurofins SafetyScreen44 (BI); settings: Compound concentration 10.0 uM
[15] = target: Histamine H1 receptor (Homo sapiens) (UniProt P35367); assay: H1/PYRIL/HS Eurofins SafetyScreen44 (BI); settings: Compound concentration 10.0 uM
[16] = target: Histamine H2 receptor (Homo sapiens) (UniProt P25021); assay: H2/APT/HS Eurofins SafetyScreen44 (BI); settings: filed as antagonist, Compound concentration 10.0 uM
[17] = target: Tyrosine-protein kinase Lck (Homo sapiens) (UniProt P06239); assay: LCK_CE Eurofins SafetyScreen44 (BI); settings: Compound concentration 10.0 uM
[18] = target: Glutamate NMDA receptor (Rattus norvegicus) (UniProt P35439+Q00959+Q00960+Q00961+Q62645+Q8VHN2+Q9R1M7); assay: NMDA/R Eurofins SafetyScreen44 (BI); assay type: protein-complex assay; settings: Compound concentration 10.0 uM
[19] = target: cGMP-inhibited 3',5'-cyclic phosphodiesterase 3A (Homo sapiens) (UniProt Q14432); assay: PDE3A Eurofins SafetyScreen44 (BI); settings: Compound concentration 10.0 uM
[20] = target: RAC-beta serine/threonine-protein kinase (Homo sapiens) (UniProt P31751); assay: AKT2 Invitrogen Lab (UK) kinase screen (BI); settings: Compound concentration 1.0 uM
[21] = target: Cyclin-dependent kinase 2/cyclin A (Homo sapiens) (UniProt P24941+P20248+P78396); assay: CDK2/CYCLINA Invitrogen Lab (UK) kinase screen (BI); assay type: protein-complex assay; settings: Compound concentration 1.0 uM
[22] = target: Serine/threonine-protein kinase Chk2 (Homo sapiens) (UniProt O96017); assay: CHEK2 Invitrogen Lab (UK) kinase screen (BI); settings: Compound concentration 1.0 uM
[23] = target: Dual specificity protein kinase CLK1 (Homo sapiens) (UniProt P49759); assay: CLK1 Invitrogen Lab (UK) kinase screen (BI); settings: Compound concentration 1.0 uM
[24] = target: Glycogen synthase kinase-3 beta (Homo sapiens) (UniProt P49841); assay: GSK3B Invitrogen Lab (UK) kinase screen (BI); settings: Compound concentration 1.0 uM
[25] = target: Tyrosine-protein kinase ITK/TSK (Homo sapiens) (UniProt Q08881); assay: ITK Invitrogen Lab (UK) kinase screen (BI); settings: Compound concentration 1.0 uM
[26] = target: Vascular endothelial growth factor receptor 2 (Homo sapiens) (UniProt P35968); assay: KDR Invitrogen Lab (UK) kinase screen (BI); settings: Compound concentration 1.0 uM
[27] = target: Mitogen-activated protein kinase 14 (Homo sapiens) (UniProt Q16539); assay: MAPK14 Invitrogen Lab (UK) kinase screen (BI); settings: Compound concentration 1.0 uM
[28] = target: Mitogen-activated protein kinase 8 (Homo sapiens) (UniProt P45983); assay: MAPK8 Invitrogen Lab (UK) kinase screen (BI); settings: Compound concentration 1.0 uM
[29] = target: Mitogen-activated protein kinase 9 (Homo sapiens) (UniProt P45984); assay: MAPK9 Invitrogen Lab (UK) kinase screen (BI); settings: Compound concentration 1.0 uM
[30] = target: MAP kinase-activated protein kinase 3 (Homo sapiens) (UniProt Q16644); assay: MAPKAPK3 Invitrogen Lab (UK) kinase screen (BI); settings: Compound concentration 1.0 uM
[31] = target: cAMP-dependent protein kinase catalytic subunit alpha (Homo sapiens) (UniProt P17612); assay: PRKACA Invitrogen Lab (UK) kinase screen (BI); settings: Compound concentration 1.0 uM
[32] = target: Protein kinase C alpha type (Homo sapiens) (UniProt P17252); assay: PRKCA Invitrogen Lab (UK) kinase screen (BI); settings: Compound concentration 1.0 uM
[33] = target: RAF proto-oncogene serine/threonine-protein kinase (Homo sapiens) (UniProt P04049); assay: RAF1 Invitrogen Lab (UK) kinase screen (BI); settings: Compound concentration 1.0 uM
[34] = target: Ribosomal protein S6 kinase alpha-4 (Homo sapiens) (UniProt O75676); assay: RPS6KA4 Invitrogen Lab (UK) kinase screen (BI); settings: Compound concentration 1.0 uM
[35] = target: Proto-oncogene tyrosine-protein kinase Src (Homo sapiens) (UniProt P12931); assay: SRC Invitrogen Lab (UK) kinase screen (BI); settings: Compound concentration 1.0 uM
[36] = target: SRSF protein kinase 2 (Homo sapiens) (UniProt P78362); assay: SRPK2 Invitrogen Lab (UK) kinase screen (BI); settings: Compound concentration 1.0 uM
[37] = target: Serine/threonine-protein kinase 3 (Homo sapiens) (UniProt Q13188); assay: STK3 Invitrogen Lab (UK) kinase screen (BI); settings: Compound concentration 1.0 uM
[38] = target: 5-hydroxytryptamine receptor 1A (Homo sapiens) (UniProt P08908); settings: Compound concentration 10.0 uM
[39] = target: 5-hydroxytryptamine receptor 1D (Homo sapiens) (UniProt P28221); settings: Compound concentration 10.0 uM
Sequence of 5-hydroxytryptamine receptor 1D (Homo sapiens) (P28221 whole entry): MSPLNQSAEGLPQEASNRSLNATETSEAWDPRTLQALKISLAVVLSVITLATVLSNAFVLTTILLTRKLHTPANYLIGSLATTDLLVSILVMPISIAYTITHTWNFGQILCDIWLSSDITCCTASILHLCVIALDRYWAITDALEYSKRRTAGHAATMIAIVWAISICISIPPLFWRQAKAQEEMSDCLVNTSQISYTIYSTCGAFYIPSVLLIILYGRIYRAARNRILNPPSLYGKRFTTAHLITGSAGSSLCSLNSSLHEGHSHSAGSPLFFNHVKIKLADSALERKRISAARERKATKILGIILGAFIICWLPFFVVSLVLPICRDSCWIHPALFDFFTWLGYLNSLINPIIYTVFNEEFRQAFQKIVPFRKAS

[40] = target: Histamine H3 receptor (Homo sapiens) (UniProt Q9Y5N1); settings: Compound concentration 10.0 uM
Sequence of Histamine H3 receptor (Homo sapiens) (Q9Y5N1 whole entry): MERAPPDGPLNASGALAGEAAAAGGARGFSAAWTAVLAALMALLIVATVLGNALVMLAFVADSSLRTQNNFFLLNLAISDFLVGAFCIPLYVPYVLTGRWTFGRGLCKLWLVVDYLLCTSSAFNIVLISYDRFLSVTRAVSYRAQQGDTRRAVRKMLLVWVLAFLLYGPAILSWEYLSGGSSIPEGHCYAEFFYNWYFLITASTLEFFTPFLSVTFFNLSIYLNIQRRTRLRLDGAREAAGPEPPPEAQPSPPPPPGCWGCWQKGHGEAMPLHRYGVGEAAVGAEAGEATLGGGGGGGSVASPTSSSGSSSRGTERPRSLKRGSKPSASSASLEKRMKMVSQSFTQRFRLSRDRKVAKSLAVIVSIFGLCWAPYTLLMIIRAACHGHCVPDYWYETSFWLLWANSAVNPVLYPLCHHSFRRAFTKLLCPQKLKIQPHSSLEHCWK

[41] = target: Alpha-1B adrenergic receptor (Homo sapiens) (UniProt P35368); settings: Compound concentration 10.0 uM
Sequence of Alpha-1B adrenergic receptor (Homo sapiens) (P35368 whole entry): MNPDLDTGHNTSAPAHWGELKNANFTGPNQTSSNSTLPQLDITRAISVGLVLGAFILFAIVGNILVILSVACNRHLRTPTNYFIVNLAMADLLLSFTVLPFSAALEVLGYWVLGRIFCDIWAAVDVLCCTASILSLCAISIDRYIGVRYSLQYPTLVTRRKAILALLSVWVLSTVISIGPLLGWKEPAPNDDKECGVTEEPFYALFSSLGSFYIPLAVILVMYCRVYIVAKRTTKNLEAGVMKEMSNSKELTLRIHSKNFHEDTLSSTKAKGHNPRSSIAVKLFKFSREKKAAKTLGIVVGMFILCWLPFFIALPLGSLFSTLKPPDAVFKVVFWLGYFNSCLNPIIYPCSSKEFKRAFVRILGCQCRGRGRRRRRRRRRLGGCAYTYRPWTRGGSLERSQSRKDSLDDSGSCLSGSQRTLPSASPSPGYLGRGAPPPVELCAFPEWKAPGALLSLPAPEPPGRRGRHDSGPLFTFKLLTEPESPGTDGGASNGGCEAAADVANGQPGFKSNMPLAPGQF

[42] = target: Muscarinic acetylcholine receptor M1 (Homo sapiens) (UniProt P11229); settings: Compound concentration 10.0 uM
Sequence of Muscarinic acetylcholine receptor M1 (Homo sapiens) (P11229 whole entry): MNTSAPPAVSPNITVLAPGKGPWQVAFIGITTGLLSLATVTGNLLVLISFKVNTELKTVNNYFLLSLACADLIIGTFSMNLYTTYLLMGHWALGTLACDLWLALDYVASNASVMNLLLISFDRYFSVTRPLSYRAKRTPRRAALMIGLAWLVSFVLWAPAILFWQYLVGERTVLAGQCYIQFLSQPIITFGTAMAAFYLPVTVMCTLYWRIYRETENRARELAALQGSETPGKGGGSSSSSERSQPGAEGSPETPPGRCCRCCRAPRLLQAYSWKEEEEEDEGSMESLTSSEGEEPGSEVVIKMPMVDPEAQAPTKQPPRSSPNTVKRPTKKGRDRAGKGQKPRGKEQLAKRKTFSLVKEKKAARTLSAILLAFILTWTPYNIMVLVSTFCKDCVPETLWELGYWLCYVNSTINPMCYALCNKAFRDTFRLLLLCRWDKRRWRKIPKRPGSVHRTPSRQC

[43] = target: T1, Muscarinic acetylcholine receptor M3; settings: Compound concentration 10.0 uM
Target sequence in this assay (P20309 whole entry, looked up): as the sequence (P20309 whole entry) above

Compound: CNC(=O)COc1cc2cc(Nc3nc(N4CCC(C(=O)N(C)C)CC4)ncc3Cl)cc(OC)c2n(C)c1=O
- Ki [1]: > 10 µM
- pKi [1]: < 5
- IC50 [2]: 0.04 µM (active)
- Kd [3]: 3.68 µM (not active)
- Kd [4]: No binding
- residual activity [5]: 124%
- residual activity [6]: 118%
- residual activity [7]: 89%
- residual activity [8]: 96%
- activity at 10 µM [9]: 95% (not active)
- residual activity [10]: 113%
- residual activity [11]: 93%
- residual activity [12]: 101%
- residual activity [13]: 85%
- residual activity [14]: 102%
- residual activity [15]: 97%
- residual activity [16]: 104%
- residual activity [17]: 99%
- residual activity [18]: 104%
- residual activity [19]: 142%
- residual activity [20]: 90%
- residual activity [21]: 88%
- residual activity [22]: 93%
- residual activity [23]: 88%
- residual activity [24]: 97%
- residual activity [25]: 83%
- residual activity [26]: 98%
- residual activity [27]: 88%
- residual activity [28]: 82%
- residual activity [29]: 99%
- residual activity [30]: 99%
- residual activity [31]: 99%
- residual activity [32]: 90%
- residual activity [33]: 79%
- residual activity [34]: 93%
- residual activity [35]: 88%
- residual activity [36]: 103%
- residual activity [37]: 100%
- inhibition [38]: 22.9%
- inhibition [39]: 13.2%
- inhibition [40]: 20.9%
- inhibition [41]: 9.69%
- inhibition [42]: 12.9%
- inhibition [43]: 65.8%
